The values below come from patent US20250154607A1, “ISOTHERMAL AMPLIFICATION OF PATHOGENS” (priority 2021, published 2025).

Values after ≈ are worked out from the molar mass of the structure shown. Where only a bound is given, the exact number is not on record here.

Data set [1] addresses T1, 9° Nm™ DNA polymerase (Thermococcus sp., UniProt Q56366, E143D). As to the kind of experiment: APA amplification of Neisseria gonorrhea DNA with SDS, with or without HPβCD. The class given is biochemical. The note with it: 4% HPβCD, lyophilized reagents, 500 copies N. gonorrhea genomic DNA. Here is the method: This example provides SDS complexation analyses of the methods and compositions provided herein. […] Anionic detergent SDS at >0.01% is inhibitory to APA amplification of DNA, but the presence of the protective agent hydroxypropyl β-CD (βCD) allowed amplification to proceed despite≤0.2% SDS. The kinetics of hydroxypropyl β-CD sequestration of SDS were thus sufficiently rapid at a molar ratio of 2:1 (˜14 mM: −7 mM) to prevent 9° Nm™ DNA polymerase inactivation by SDS.
Standard APA reactions with or without 4% Sigma 389145 HPβCD containing “hot-start” CleanAmp™ deoxynucleotides (CAdNTP) and a sequence-specific molecular beacon detection probe were performed with lyophilized ((supplemented with dextran 40, Trehalose), FIG. 2B) or “wet” (no HPβCD, FIG. 2A) reagents including Tris pH 8.4, KCl, MgSO4, and (NH4)2SO4 Triton X-100, 9° Nm™ DNA polymerase, CAdNTP, primers and probe. For the lyophilized reactions, samples were prepared in 50 μl solution containing MgSO4, and (NH4)2SO4 with (shapes) or without (dashed) 500 copies of N. gonorrhea genomic DNA. After dried reagents were dissolved with the samples, various amounts of SDS were added, as indicated, and solutions were vortexed. For the wet reactions, 45 μl master mix containing all reaction components was added to 5 μl sample containing 1OX SDS (final concentration as indicated), with and without 500 copies of N. gonorrhea genomic DNA. Activation of CAdNTP by 2 minutes 90° C. was followed by APA at 68° C. for 10 minutes with detection of the NG amplification product by fluorescence collected every 15 seconds.

In data set [2] the target is T1, 9° Nm™ DNA polymerase. As to the kind of experiment: Order-of-addition assay (APA of S. enterica DNA, SDS and hydroxypropyl β-CD). In kind it is biochemical. The note with it: 4% hydroxypropyl β-CD added prior to 0.4% SDS. The protocol:
Order-of-addition assay: Detection time dependent on cyclodextrin addition prior to brief interaction of enzymes with SDS. Since SDS rapidly and irreversibly inactivated 9° Nm™ DNA polymerase, when the enzyme is instead simultaneously exposed to SDS and β-CD, the kinetics of complexation of the latter two substances must be very rapid, compared with the rate of interaction between SDS and the enzyme.
FIG. 6 depicts data related to detection of S. enterica DNA target (50,000 copies) by APA reactions in a wet “hot-start” format mediated by CleanAmp™ deoxynucleotides (CAdNTP) containing Tris pH7.6, KCl, (NH4)2SO4, MgSO4, Triton X-100, SYBRI, CAdNTP, 9° Nm™ DNA polymerase, with additions of 0.4% SDS (X), 4% hydroxypropyl β-CD (squares), SDS then immediately β-CD (circles), or β-CD then SDS (solid line) with mixing. Control (ctrl dotted line) was no additions. All samples included DNA target. Isothermal APA was at 68° C., collecting intercalating dye fluorescence every 15 seconds to monitor all exponential DNA amplification. […] Negative controls for each condition without S. enterica DNA confirmed specificity of indicated amplification products (not shown).

In data set [3] the target is T1, 9° Nm™ DNA polymerase. Kind of data set: APA amplification of Chlamydia trachomatis DNA with CTAB, with or without HP-βCD. In kind it is biochemical. Here is the method: APA reactions containing CAdNTP and sequence-specific molecular beacon detection probes were performed as above in lyophilized (with HP-βCD; FIG. 3B) or wet reactions (no HP-βCD; FIG. 3A) and various amounts of the cationic detergent CTAB, without (“NTC”) or with the addition of 500 copies of C. trachomatis total cell DNA. Activation of CAdNTP by heating 2 minutes at 90° C. was followed by APA at 68° C. with fluorescence collected every 15 seconds.

For another data set, the system named is influenza B RNA. Kind of data set: Reverse-transcription APA detection of influenza B RNA with SDS and lyophilized reagents containing cyclodextrin. The class given is biochemical. The conditions noted are these: 0.2% SDS lysis solution, 500 IU influenza B RNA, 4% betaCD in lyophilized reagents. Here is the method: APA was performed with lyophilized reagents (including β-cyclodextrin, dNTPs, 35 units reverse transcriptase, KCl, EGTA (or EDTA), Tx-100, Tween 80, poly rA, Tris pH8.4, dextran 40k, 4% betaCD, trehalose, primers, probe, 9° Nml™)
After two minutes at 58° C. (to facilitate reverse transcription) the temperature was raised to 68° C. for APA and fluorescence detection.

Data set [4] concerns Chlamydia trachomatis elementary bodies. Kind of data set: Lysis of Chlamydia trachomatis elementary bodies, read out by APA. The note with it: APA reaction mix containing 4% cyclodextrin HP-βCD. The protocol: Elementary body lysis (˜40/reaction) was probed in this example using an APA-based assay. Elementary bodies (Acrometrix) were added to either cold chlamydia transport media (SPD containing sucrose, phosphate buffer, and glutamic acid), TE (Tris-EDTA 10-1), or lysis buffer containing 0.4% SDS, pH 2.2. The samples in TE or SDS were heated 5 minutes at 95° C. (heat lysis) or 2 minutes at 78° C. (SDS lysis), respectively. Then 5 μl (containing 40 elementary bodies) was added to “wet” APA reaction mix as above (pH 7.6 to facilitate isothermal CAdNTP activation) containing 4% cyclodextrin HP-βCD for isothermal APA (68° C.) with fluorescence from a chlamydia-specific molecular beacon collected every 15 seconds.

For data set [5] the following is noted: cited from earlier work.
Data set [6] has as its target T2, RNase A (Bos taurus, UniProt P61823).
T2 sequence (P61823 27-150): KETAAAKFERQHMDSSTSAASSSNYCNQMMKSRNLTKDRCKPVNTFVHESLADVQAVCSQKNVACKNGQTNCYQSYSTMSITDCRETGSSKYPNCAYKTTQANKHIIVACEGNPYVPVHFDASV
Kind of data set: RNase Alert assay of RNase A activity recovery after SDS/DTT pretreatment. The class given is biochemical. Here is the method:
2 ng RNase A was incubated 2 minutes at 58° C. in […] solutions containing either 10 mM DTT+0.2% SDS (+), 0.2% SDS (triangle), 10 mM DTT (square), or neither (solid line) and then the RNase Alert assay was used to study the recovery of any RNase activity upon sequestration of SDS after dissolving lyophilized APA reagents without enzymes but containing RNase Alert substrate and protective agent (4% βCD) with continued incubation and fluorescence data collection at 58° C. In the presence of RNase activity, the RNase alert indicator substrate releases detectable fluorescence. […] FIG. 11A depicts recovery of RNase A activity after identical pretreatment without addition of βCD, in this case monitoring activity in […] of the solution by transfer to an RNase alert “wet” reaction format. […] Thus, as shown here, simultaneous treatment with ionic detergent and reducing agent is required for successful irreversible inactivation under the conditions described herein. […] Without being bound by any particular theory, this may be related to the impact of cyclodextrin and other APA additives on the refolding process. This example also provides further confirmation that the prior art and currently available methods (e.g, employing a reducing agent but no denaturant) are inadequate under these conditions, with an independent, commercially available RNase assay.

The target of data set [7] is T2, RNase A. As to the kind of experiment: RNaseAlert assay of RNase A inactivation with CTAB and DTT after sequestration by HP-βCD. In kind it is biochemical. The note with it: for RNase A inactivation, activity upon sequestration of the detergent: 68° C.; for RNase A activity after CTAB sequestration by 4% HP-βCD: 20 ng RNase A, various temperatures. Here is the method:
FIG. 7 depicts data related to the effect of DTT on the irreversibility of RNase A inactivation in the presence of CTAB at various temperatures. To simulate authentic reaction conditions, standard APA reaction reagents lacking 9° Nm™ DNA polymerase but containing 4% HP-βCD were prepared in a lyophilized format. The lyophilized reagents also contained the RNaseAlert® assay substrate, a synthetic quenched RNA probe which releases fluorescence in the presence of active RNase A. Reagents were preincubated 2 minutes and dissolved at the indicated temperatures with […] solutions containing 20 ng RNase A ([…]) with (dotted lines) or without (shapes) 10 mM DTT which had also been preincubated at the indicated temperatures on a Bio-Rad CFx thermocycler with programmed temperature gradient.
FIG. 8 depicts data related to effect of DTT and HP-βCD on RNase A inactivation. An RNase Alert assay was used to study the effect of DTT and 0.2% cationic detergent CTAB on RNase inactivation. RNase A was spiked into solutions containing 0.2% CTAB which were then mixed with lyophilized APA reagent pellets lacking enzymes but containing RNase Alert substrate and protective agent (4% HP-0 CD) after preincubation of all solutions at 68° C. followed by fluorescence data collection at 68° C.

For data set [8], the target named is T2, RNase A. Kind of data set: Influenza B virus APA assay with RNase A in ELB (Elution/Lysis Buffer). The class given is biochemical. The note with it: RNAse A 10 μg/ml; 2 minutes 58° C. in ELB with 0.2% SDS, without or with 10 mM DTT; β-CD 4% final. The protocol:
FIGS. 12A-12B depict data related to RNase A inactivation in an influenza B assay like the one in Example 4, with DTT in ELB (Elution/Lysis Buffer). […] After incubation, lyophilized APA reagents co-incubated 2 minutes 58° C., containing β-CD (4% final) were dissolved with the heated solutions, and FAM fluorescence collected every 15 seconds to monitor APA. […] The inclusion of DTT enables unimpeded operation of this POC influenza detection system in a mock sample containing very high level of purified RNase A ([…]). Moreover, while currently available methods can only achieve irreversible ribonuclease inactivation at a maximum 200 ng/ml, the compositions and methods provided herein show utility with 10 μg/ml to accommodate potentially larger amounts in patient samples.

In the next data set the test system is nasal swab ribonucleases. Kind of data set: Protection of RNA from nasal swab ribonucleases (influenza B RNA APA). The class given is biochemical, human. The note with it: nasal swab eluate 4% of swab; 0.2% SDS with or without 10 mM DTT; 2 minutes at 58° C.; then 4% βCD.
The target in data set [9] is T2, RNase A. Kind of data set: Requirements for irreversible RNase inactivation (influenza B RNA APA in presence of RNase A). In kind it is biochemical. The note with it: 500 ng RNase A (10 μg/ml); additions 0.2% SDS, 10 mM DTT, 0.1% Triton X-100 as labelled; 2 minutes at 58° C.; then 4% βCD.

T1 sequence (Q56366 whole entry E143D): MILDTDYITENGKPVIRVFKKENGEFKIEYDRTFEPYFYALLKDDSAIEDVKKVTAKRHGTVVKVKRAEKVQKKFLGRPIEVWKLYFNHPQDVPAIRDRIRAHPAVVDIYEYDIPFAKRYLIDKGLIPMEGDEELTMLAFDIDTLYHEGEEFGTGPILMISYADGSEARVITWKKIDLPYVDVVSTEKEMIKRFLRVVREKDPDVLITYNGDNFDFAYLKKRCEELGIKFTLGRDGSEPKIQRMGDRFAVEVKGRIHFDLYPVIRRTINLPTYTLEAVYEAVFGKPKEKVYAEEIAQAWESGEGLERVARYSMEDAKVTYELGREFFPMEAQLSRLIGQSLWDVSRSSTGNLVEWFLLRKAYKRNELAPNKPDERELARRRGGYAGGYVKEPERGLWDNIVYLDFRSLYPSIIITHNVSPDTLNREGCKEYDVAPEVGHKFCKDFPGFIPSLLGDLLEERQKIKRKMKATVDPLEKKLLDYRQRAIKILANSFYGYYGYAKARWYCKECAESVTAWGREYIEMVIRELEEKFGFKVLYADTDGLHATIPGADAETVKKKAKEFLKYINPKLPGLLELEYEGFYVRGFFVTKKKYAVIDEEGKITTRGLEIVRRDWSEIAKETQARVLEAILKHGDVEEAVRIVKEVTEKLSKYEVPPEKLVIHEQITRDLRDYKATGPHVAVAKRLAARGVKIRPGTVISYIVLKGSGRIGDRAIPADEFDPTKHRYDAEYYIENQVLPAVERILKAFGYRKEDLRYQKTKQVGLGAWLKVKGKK

On to hydroxypropyl-β-cyclodextrin [HP-βCD], for which the “SDS concentration tolerated by APA amplification in presence of the protective agent” value at 9° Nm™ DNA polymerase [1] is reported as “at least 0.2%”; on 9° Nm™ DNA polymerase [1] (listed as hydroxypropyl β-CD), at most 0.2%. Also, the “Effect on APA amplification” value on 9° Nm™ DNA polymerase [2] is “restoring detection time, although with reduced plateau”. The “CTAB concentration completely tolerated by APA in presence of the protectant” value at 9° Nm™ DNA polymerase [3] (with HP-βCD, lyophilized reactions) is on record as “at least 0.2%”. Moreover, the “Restoration of assay performance in the presence of SDS” value with influenza B RNA was “virtually complete restoration of assay performance”. Also, the “Impact of persisting 0.4% ionic detergent on 9° Nm™ DNA polymerase-mediated amplification” value in data set [4] was “had no impact”.

With `OC[C@H]1O[C@@H]2O[C@H]3[C@H](O)[C@@H](O)[C@@H](O[C@H]4[C@H](O)[C@@H](O)[C@@H](O[C@H]5[C@H](O)[C@@H](O)[C@@H](O[C@H]6[C@H](O)[C@@H](O)[C@@H](O[C@H]7[C@H](O)[C@@H](O)[C@@H](O[C@H]1[C@H](O)[C@H]2O)O[C@@H]7CO)O[C@@H]6CO)O[C@@H]5CO)O[C@@H]4CO)O[C@@H]3CO` [α-Cyclodextrin], the water solubility in [5] is reported as 50 mg/mL (≈ 51.4 mM).

Take `O[C@H](CS)[C@H](O)CS` (racemic) [DTT, dithiothreitol]: the “Recovery of RNase A activity after pretreatment, with βCD” value on RNase A [6] (2 ng RNase A, 2 minutes at 58° C., 10 mM DTT and/or 0.2% SDS, then 4% βCD) is on record as “virtually full recovery of enzyme activity”. The “Recovery of RNase A activity after pretreatment, without addition of βCD” value on RNase A [6] (10 mM DTT alone, wet RNase alert format) is “did not impact recovery of RNase A activity”. Further, at RNase A [7] (0.2% CTAB with 10 mM DTT, 4% HP-βCD), the “RNase A inactivation, activity upon sequestration of the detergent” value is reported as “effectively irreversibly inactivated”. Besides, the “RNase A activity after CTAB sequestration by 4% HP-βCD” value on RNase A [7] (with 10 mM DTT) is reported as “no restored activity was detected”. Also, the “Influenza B virus APA performance in presence of RNAse A” value at RNase A [8] was “performance equivalent to a no RNAse A control”. For the same compound, the “Influenza B RNA detection after nasal swab eluate pretreatment and SDS sequestration” value in the data set with nasal swab ribonucleases is “restored detection”.

Regarding `CCCCCCCCCCCCCCCC[N+](C)(C)C.[Br-]` [CTAB, cetyltrimethylammonium bromide], the “RNase A inactivation, activity upon sequestration of the detergent” value on RNase A [7] (0.2% CTAB only, RNase A 10 μg/ml and 1 μg/ml) is recorded as “activity was rapidly restored”. Besides, on RNase A [7] (without DTT), the “RNase A activity after CTAB sequestration by 4% HP-βCD” value is “immediate reversibility”. On 9° Nm™ DNA polymerase [3] (absence of HP-βCD, 500 copies C. trachomatis total cell DNA), the “CTAB concentration giving complete inactivation of APA” value is over 0.01%.

Regarding Triton X-100, the “Influenza B RNA detection by APA after RNase A pretreatment” value on RNase A [9] is recorded as “no RNA detection”.
